From article PMC10861852, “Loss of activation by GABA in vertebrate delta ionotropic glutamate receptors” (Proceedings of the National Academy of Sciences of the …, 2024)
Positions count from the first letter of the chain named.

Assays:
RatGluD2^5x = target: T1, RatGluD2^5x (Rattus norvegicus, UniProt Q63226, A686S/K694R/N720P/P806D/Y613F); test: Two-electrode voltage clamp, responses to ligands in mutant-expressing oocytes; assay type: cell-based; settings: ligands 30 mM
T1 construct: expressed in transfected cells; host or cells: Xenopus laevis oocytes injected with mRNA
T1 sequence (Q63226 24-1007 Y613F/A686S/K694R/N720P/P806D): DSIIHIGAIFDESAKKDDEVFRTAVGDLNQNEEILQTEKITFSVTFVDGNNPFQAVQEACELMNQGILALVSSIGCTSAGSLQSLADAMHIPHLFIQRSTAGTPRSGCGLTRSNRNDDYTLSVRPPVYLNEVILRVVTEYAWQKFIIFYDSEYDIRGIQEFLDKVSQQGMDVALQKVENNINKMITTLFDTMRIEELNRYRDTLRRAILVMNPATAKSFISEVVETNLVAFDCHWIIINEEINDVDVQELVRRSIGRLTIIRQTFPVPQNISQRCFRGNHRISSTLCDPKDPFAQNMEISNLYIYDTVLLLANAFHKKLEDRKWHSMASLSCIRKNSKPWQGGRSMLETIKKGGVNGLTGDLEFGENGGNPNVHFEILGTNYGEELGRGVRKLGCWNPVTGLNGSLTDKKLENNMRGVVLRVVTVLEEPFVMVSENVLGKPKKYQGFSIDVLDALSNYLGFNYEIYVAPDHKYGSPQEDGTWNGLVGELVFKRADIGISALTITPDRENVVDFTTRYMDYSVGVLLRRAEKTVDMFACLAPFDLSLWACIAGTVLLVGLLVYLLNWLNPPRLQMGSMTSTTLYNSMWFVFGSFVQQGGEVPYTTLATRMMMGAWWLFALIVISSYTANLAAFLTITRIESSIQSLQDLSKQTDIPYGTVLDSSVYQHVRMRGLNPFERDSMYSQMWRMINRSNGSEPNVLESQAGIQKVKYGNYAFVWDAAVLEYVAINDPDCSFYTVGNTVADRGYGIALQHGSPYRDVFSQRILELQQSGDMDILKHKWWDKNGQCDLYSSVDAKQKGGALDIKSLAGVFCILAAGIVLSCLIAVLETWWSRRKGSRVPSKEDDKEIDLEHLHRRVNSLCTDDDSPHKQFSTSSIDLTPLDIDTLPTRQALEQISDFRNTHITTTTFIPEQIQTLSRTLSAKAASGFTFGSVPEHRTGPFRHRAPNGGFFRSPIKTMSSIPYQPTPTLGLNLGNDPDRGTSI
Text: (§1) If the 10 mutations discussed above drove the loss of function in vertebrate delta iGluRs, one might expect that the latter could be “reawakened” via active invertebrate delta iGluR-like mutations here. We therefore engineered mutant RatGluD2 iGluRs to contain at these positions the equivalent residues from starfish delta iGluRs. These mutants were RatGluD2^5x, containing Y613F, A686S, K694R, N720P, and P806D substitutions (pink in Fig. 6A), and RatGluD2^9x, additionally containing N763K, D753Q, Q786M, and R787V (cyan in Fig. 6A).
(§2) Fig. 6. AcaGluD-like mutations alter RatGluD2 receptor function. (A) D-serine bound RatGluD2 from X-ray structure PDB:2v3u ([13]). Selected amino acid residues are indicated, colored, shown as sticks, and labeled 5×, 9×, 10×, and/or Lc according to the multiple mutants they were incorporated into. 10× mutant included 10×, 9×, and 5× positions. 9× included 9× and 5×. 5× included only 5×. […] (B–E) Example current responses to different neurotransmitter ligands (30 mM) and to pore blocker pentamidine (Pent, 100 μM) in oocytes expressing indicated RatGluD2 mutants. The dashed line indicates zero current baseline. (F) Individual (dots) and mean (columns) responses to ligands in oocytes expressing indicated RatGluD2 mutants (n = 4 to 5).

RatGluD2^9x = target: T2, RatGluD2^9x (Rattus norvegicus, UniProt Q63226, A686S/D753Q/K694R/N720P/N763K/P806D/Q786M/R787V/Y613F); test: as above; assay type: cell-based; settings: ligands 30 mM
T2 construct: expressed in transfected cells; host or cells: Xenopus laevis oocytes injected with mRNA
T2 sequence (Q63226 24-1007 Y613F/A686S/K694R/N720P/D753Q/N763K/Q786M/R787V/P806D): T1 sequence (Q63226 24-1007 Y613F/A686S/K694R/N720P/P806D) with D730Q, N740K, Q763M, R764V
Text: as §1, §2

DanGluD2A^Lc = test: Two-electrode voltage clamp, inhibition of constitutive current in oocytes; assay type: cell-based, Danio rerio; settings: lurcher-mutant receptor

| Structure (SMILES) | current response to ligand (RatGluD2^5x) | current response to ligand (RatGluD2^9x) | effect on constitutive currents (DanGluD2A^Lc) | inactivation of constitutive current relative to D-serine (DanGluD2A^Lc; n = 4) [%] |
| --- | --- | --- | --- | --- |
| N[C@H](CO)C(=O)O [D-serine] | no responses | no responses | inactivated | – |
| NCCCC(=O)O [GABA, γ-aminobutyric acid] | no responses | no responses | – | 58 ± 8 |
| NCC(=O)O [glycine] | no responses | no responses | inactivated | – |
